Reference: patent US11912683B1 (priority 2023, dated 2024)
Values after ≈ are worked out from the molar mass of the structure shown.

Test system: multidrug-resistant (MDR) strains of Mycobacterium tuberculosis
Test: microbe, parasite or virus in culture
Type: cell-based
Settings: 192 h, read-out: Anti-tubercular activity against Mycobacterium tuberculosis MDR (MIC)

Question: How did the MIC turn out when `CC1=C(C(=O)N2CCCCC2)C(c2ccccc2)NC(=S)N1` (stereo not shown) [DHPM-KN1, (6-Methyl-4-phenyl-2-thioxo-1,2,3,4-tetrahydropyrimidin-5-yl)(piperidin-1-yl)methanone] was run?
Answer: 64 µg/mL (≈ 203 µM)

Question: With `COC(=O)C1=C(C)NC(=O)NC1c1ccc([N+](=O)[O-])cc1[N+](=O)[O-]` (stereo not shown) [DHPM-KN4, Methyl 4-(2,4-dinitrophenyl)-6-methyl-2-oxo-1,2,3,4-tetrahydropyrimidine-5-carboxylate] as the compound, how does the MIC read?
Answer: 64 µg/mL (≈ 190 µM)

Question: How did the MIC turn out when `CC1=C(C(=O)N2CCCCC2)C(c2ccc([N+](=O)[O-])cc2)NC(=S)N1` (stereo not shown) [DHPM-KN5, (6-Methyl-4-(4-nitrophenyl)-2-thioxo-1,2,3,4-tetrahydropyrimidin-5-yl)(piperidin-1-yl)methanone] was run?
Answer: 32 µg/mL (≈ 88.8 µM)

Question: How did the MIC turn out when `CC1=C(C(=O)N2CCCCC2)C(c2ccc(Br)cc2)NC(=S)N1` (stereo not shown) [DHPM-KN6, (4-(4-Bromophenyl)-6-methyl-2-thioxo-1,2,3,4-tetrahydropyrimidin-5-yl)(piperidin-1-yl)methanone] was run?
Answer: 128 µg/mL (≈ 325 µM)

Question: `COc1ccc(C2NC(=S)NC(C)=C2C(=O)N2CCCCC2)cc1` (stereo not shown) [DHPM-KN7, (4-(4-Methoxyphenyl)-6-methyl-2-thioxo-1,2,3,4-tetrahydropyrimidin-5-yl)(piperidin-1-yl)methanone] was tested. Which MIC did it give?
Answer: 256 µg/mL (≈ 741 µM)

Question: `CC1=C(C(=O)N2CCCCC2)C(c2ccccc2C)NC(=S)N1` (stereo not shown) [DHPM-KN8, (6-Methyl-2-thioxo-4-(o-tolyl)-1,2,3,4-tetrahydropyrimidin-5-yl)(piperidin-1-yl)methanone] was tested. Which MIC did it give?
Answer: 256 µg/mL (≈ 777 µM)

Question: Which MIC does the source give for `CC1=C(C(=O)N2CCCCC2)C(c2ccc(C(F)(F)F)cc2)NC(=S)N1` (stereo not shown) [DHPM-KN10, (6-Methyl-2-thioxo-4-(4-(trifluoromethyl)phenyl)-1,2,3,4-tetrahydropyrimidin-5-yl)(piperidin-1-yl)methanone] here?
Answer: 256 µg/mL (≈ 668 µM)
